Results as given in patent US20050192261A1, “Methods and reagents for the treatment of immunoinflammatory disorders” (priority 2003, published 2005).
Values joined by “and” are separate entries in the source; they are usually repeats but may differ in a detail not shown here. Equal entries are not always repeated. Structures can show the parent of a compound that is named as a salt. Where two headings read alike, the source gives them in different places.

Test system: TNFα secretion in white blood cells from human buffy coat stimulated with phorbol 12-myristate 13-acetate and ionomycin
Assay: TNFα secretion assay
Conditions: for inhibition at 0.3 µM: read-out: % inhibition of TNFα secretion, Dipyridamole 0.3 μM; for inhibition at 19 µM: read-out: % inhibition of TNFα secretion, Dipyridamole 19 μM
[1] = Homo sapiens, Bromodiphenhydramine HCl μM r5-r13: 0,0.21,0.43,0.85,1.7,3.4,6.8,14,27
[2] = Homo sapiens, Cyproheptadine HCl μM r5-r13: 0,0.24,0.48,0.96,1.9,3.9,7.7,15,31
[3] = Homo sapiens, Loratadine μM r5-r13: 0,0.2,0.41,0.82,1.6,3.3,6.5,13,26
[4] = Homo sapiens, Thiethylperazine Maleate μM r5-r13: 0,0.2,0.39,0.78,1.6,3.1,6.3,13,25

`C[C@]12C=CC(=O)C=C1CC[C@@H]1[C@@H]2[C@@H](O)C[C@@]2(C)[C@H]1CC[C@]2(O)C(=O)CO` [Prednisolone, prednisolone] showed an inhibition at 0.5 µM (Homo sapiens, read-out: % inhibition of TNFα secretion, Prednisolone 0.5 μM, Tripelennamine HCl μM r5-r13: 0,0.31,0.61,1.2,2.4,4.9,9.8,20,39) of 35%, an inhibition at 1 µM (Homo sapiens, read-out: % inhibition of TNFα secretion, Prednisolone 1 μM, Tripelennamine HCl μM r5-r13: 0,0.31,0.61,1.2,2.4,4.9,9.8,20,39) of 40% and an inhibition at 0.5 µM (Homo sapiens, read-out: inhibition of TNFα secretion, prednisolone 0.5 μM, azatadine maleate r5-r13: 0,0.27,0.54,1.1,2.1,4.3,8.6,17,34 μM) of 35%. For the same molecule, the inhibition at 0.5 µM (Homo sapiens, read-out: inhibition of TNFα secretion, prednisolone 0.5 μM, bromodiphenhydramine HCl r5-r13: 0,0.21,0.43,0.85,1.7,3.4,6.8,14,27 μM) was 34%, the inhibition at 0.5 µM (Homo sapiens, read-out: inhibition of TNFα secretion, prednisolone 0.5 μM, chlorpheniramine maleate r5-r13: 0,0.2,0.4,0.8,1.6,3.2,6.4,13,26 μM) was 28% and the inhibition at 0.5 µM (Homo sapiens, read-out: inhibition of TNFα secretion, prednisolone 0.5 μM, clemizole HCl r5-r13: 0,0.22,0.43,0.86,1.7,3.5,6.9,14,28 μM) was 37%. It also gave an inhibition at 0.5 µM (Homo sapiens, read-out: inhibition of TNFα secretion, prednisolone 0.5 μM, doxylamine succinate r5-r13: 0,0.2,0.4,0.8,1.6,3.2,6.4,13,26 μM) of 32%, an inhibition at 0.5 µM (Homo sapiens, read-out: inhibition of TNFα secretion, prednisolone 0.5 μM, fexofenadine HCl r5-r13: 0,0.073,0.15,0.29,0.58,1.2,2.3,4.6,9.3 μM) of 45% and an inhibition at 0.5 µM (Homo sapiens, read-out: inhibition of TNFα secretion, prednisolone 0.5 μM, loratadine r5-r13: 0,0.2,0.41,0.82,1.6,3.3,6.5,13,26 μM) of 29%. The inhibition at 0.5 µM (Homo sapiens, read-out: inhibition of TNFα secretion, prednisolone 0.5 μM, meclizine HCl r5-r13: 0,0.32,0.63,1.3,2.5,5.1,10,20,41 μM) was 36%, the inhibition at 0.5 µM (Homo sapiens, read-out: inhibition of TNFα secretion, prednisolone 0.5 μM, promethazine HCl r5-r13: 0,0.24,0.49,0.97,1.9,3.9,7.8,16,31 μM) was 32% and the inhibition at 0.5 µM (Homo sapiens, read-out: inhibition of TNFα secretion, prednisolone 0.5 μM, pyrilamine maleate r5-r13: 0,0.19,0.38,0.76,1.5,3,6.1,12,24 μM) was 24%. For the same molecule, the inhibition at 1 µM (Homo sapiens, read-out: inhibition of TNFα secretion, prednisolone 1 μM, azatadine maleate r5-r13: 0,0.27,0.54,1.1,2.1,4.3,8.6,17,34 μM) was 43%, the inhibition at 1 µM (Homo sapiens, read-out: inhibition of TNFα secretion, prednisolone 1 μM, bromodiphenhydramine HCl r5-r13: 0,0.21,0.43,0.85,1.7,3.4,6.8,14,27 μM) was 37% and the inhibition at 1 µM (Homo sapiens, read-out: inhibition of TNFα secretion, prednisolone 1 μM, cetrizine HCl r5-r13: 0,0.2,0.4,0.8,1.6,3.2,6.4,13,26 μM) was 40%. The inhibition at 1 µM (Homo sapiens, read-out: inhibition of TNFα secretion, prednisolone 1 μM, chlorpheniramine maleate r5-r13: 0,0.2,0.4,0.8,1.6,3.2,6.4,13,26 μM) was 39%, the inhibition at 1 µM (Homo sapiens, read-out: inhibition of TNFα secretion, prednisolone 1 μM, clemizole HCl r5-r13: 0,0.22,0.43,0.86,1.7,3.5,6.9,14,28 μM) was 40% and the inhibition at 1 µM (Homo sapiens, read-out: inhibition of TNFα secretion, prednisolone 1 μM, cyproheptadine HCl r5-r13: 0,0.24,0.48,0.96,1.9,3.9,7.7,15,31 μM) was 39%. The inhibition at 1 µM (Homo sapiens, read-out: inhibition of TNFα secretion, prednisolone 1 μM, doxylamine succinate r5-r13: 0,0.2,0.4,0.8,1.6,3.2,6.4,13,26 μM) was 35%, the inhibition at 1 µM (Homo sapiens, read-out: inhibition of TNFα secretion, prednisolone 1 μM, fexofenadine HCl r5-r13: 0,0.073,0.15,0.29,0.58,1.2,2.3,4.6,9.3 μM) was 45% and the inhibition at 1 µM (Homo sapiens, read-out: inhibition of TNFα secretion, prednisolone 1 μM, loratadine r5-r13: 0,0.2,0.41,0.82,1.6,3.3,6.5,13,26 μM) was 40%. It also gave an inhibition at 1 µM (Homo sapiens, read-out: inhibition of TNFα secretion, prednisolone 1 μM, meclizine HCl r5-r13: 0,0.32,0.63,1.3,2.5,5.1,10,20,41 μM) of 44%, an inhibition at 1 µM (Homo sapiens, read-out: inhibition of TNFα secretion, prednisolone 1 μM, promethazine HCl r5-r13: 0,0.24,0.49,0.97,1.9,3.9,7.8,16,31 μM) of 39% and an inhibition at 1 µM (Homo sapiens, read-out: inhibition of TNFα secretion, prednisolone 1 μM, pyrilamine maleate r5-r13: 0,0.19,0.38,0.76,1.5,3,6.1,12,24 μM) of 31%. For the same molecule, the inhibition at 1 µM (Homo sapiens, read-out: inhibition of TNFα secretion, prednisolone 1 μM, thiethylperazine maleate r5-r13: 0,0.2,0.39,0.78,1.6,3.1,6.3,13,25 μM) was 39%, the inhibition at 0.5 µM (Homo sapiens, read-out: percent inhibition of TNFα secretion, Prednisolone 0.5 μM, Bromodiphenhydramine HCl μM r5-r13: 0,0.21,0.43,0.85,1.7,3.4,6.8,14,27) was 34% and the inhibition at 0.5 µM (Homo sapiens, read-out: percent inhibition of TNFα secretion, Prednisolone 0.5 μM, Clemizole μM r5-r13: 0,0.22,0.43,0.86,1.7,3.5,6.9,14,28) was 37%. It also gave an inhibition at 0.5 µM (Homo sapiens, read-out: percent inhibition of TNFα secretion, Prednisolone 0.5 μM, Loratadine μM r5-r13: 0,0.2,0.41,0.82,1.6,3.3,6.5,13,26) of 29%, an inhibition at 0.5 µM (Homo sapiens, read-out: percent inhibition of TNFα secretion, Prednisolone 0.5 μM, Promethazine HCl μM r5-r13: 0,0.24,0.49,0.97,1.9,3.9,7.8,16,31) of 32% and an inhibition at 1 µM (Homo sapiens, read-out: percent inhibition of TNFα secretion, Prednisolone 1 μM, Bromodiphenhydramine HCl μM r5-r13: 0,0.21,0.43,0.85,1.7,3.4,6.8,14,27) of 37%. It also gave an inhibition at 1 µM (Homo sapiens, read-out: percent inhibition of TNFα secretion, Prednisolone 1 μM, Clemizole μM r5-r13: 0,0.22,0.43,0.86,1.7,3.5,6.9,14,28) of 40%, an inhibition at 1 µM (Homo sapiens, read-out: percent inhibition of TNFα secretion, Prednisolone 1 μM, Cyproheptadine μM r5-r13: 0,0.24,0.48,0.96,1.9,3.9,7.7,15,31) of 39% and an inhibition at 1 µM (Homo sapiens, read-out: percent inhibition of TNFα secretion, Prednisolone 1 μM, Loratadine μM r5-r13: 0,0.2,0.41,0.82,1.6,3.3,6.5,13,26) of 40%. It also gave an inhibition at 1 µM (Homo sapiens, read-out: percent inhibition of TNFα secretion, Prednisolone 1 μM, Promethazine HCl μM r5-r13: 0,0.24,0.49,0.97,1.9,3.9,7.8,16,31) of 39% and an inhibition at 1 µM (Homo sapiens, read-out: percent inhibition of TNFα secretion, Prednisolone 1 μM, Thiethylperazine μM r5-r13: 0,0.2,0.39,0.78,1.6,3.1,6.3,13,25) of 39%.

With `CN(C)CCOC(C)(c1ccccc1)c1ccccn1` (stereo not drawn) [Doxylamine Succinate] the “inhibition of TNFα secretion” value (prednisolone 1 μM, doxylamine succinate r5-r13: 0,0.2,0.4,0.8,1.6,3.2,6.4,13,26 μM) was 34.

`OCCN(CCO)c1nc(N2CCCCC2)c2nc(N(CCO)CCO)nc(N3CCCCC3)c2n1` [Dipyridamole] showed an inhibition at 0.3 µM [1] of 0.92%, an inhibition at 0.3 µM [2] of -0.27% and an inhibition at 0.3 µM [3] of 9.6%. The inhibition at 0.3 µM [4] was 7%, the inhibition at 19 µM [1] was 71% and the inhibition at 19 µM [2] was 63%. The inhibition at 19 µM [3] was 70% and the inhibition at 19 µM [4] was 71%.

Work on `CNCCC(Oc1ccc(C(F)(F)F)cc1)c1ccccc1` (racemic) [Fluoxetine HCl, (±)-N-methyl-3-phenyl-3-[((alpha),(alpha),(alpha)-trifluoro-p-tolyl)oxy]propylamine hydrochloride] yielded an inhibition at 0.9 µM (Homo sapiens, read-out: percent inhibition of TNFα secretion, Fluoxetine HCl 0.9 μM, Cyproheptadine HCl: 0/0.24/0.48/0.96/1.9/3.9/7.7/15/31 μM) of -1.1%, an inhibition at 14 µM (Homo sapiens, read-out: percent inhibition of TNFα secretion, Fluoxetine HCl 14 μM, Cyproheptadine HCl: 0/0.24/0.48/0.96/1.9/3.9/7.7/15/31 μM) of 16% and an inhibition at 29 µM (Homo sapiens, read-out: percent inhibition of TNFα secretion, Fluoxetine HCl 29 μM, Cyproheptadine HCl: 0/0.24/0.48/0.96/1.9/3.9/7.7/15/31 μM) of 41%. The “percent inhibition of TNFα secretion” value (Promethazine HCl 0 μM, Fluoxetine HCl μM r5-r13: 0,0.23,0.45,0.9,1.8,3.6,7.2,14,29, hydrochloride) was 1.71% and −2.67% and 4.37% and 2.89% and −0.34% and −0.46% and −0.103% and 4.12%.
